In publication PMC3866371 (Neuropharmacology, 2013):
Read-outs that look alike come from different tables or passages of the source.

How the values were obtained:
rat α4β2 nAChR = rat α4β2 nAChR (Rattus norvegicus, UniProt P09483+P12390); assay: Competition binding with [^3H]epibatidine as radioligand, HEK cell membranes
human α3β4α5 nAChR [1] = target: T1, human α3β4α5 nAChR (Homo sapiens, UniProt P30926+P32297); assay: Competition binding with [^125I]AT-1012 as radioligand, HEK cell membranes
rat α3β4 nAChR [2] = target: T2, rat α3β4 nAChR (Rattus norvegicus, UniProt P04757+P12392); assay: as above
human α3β4α5 nAChR [3] = target: T1, human α3β4α5 nAChR; assay type: binding
rat α3β4 nAChR [4] = target: T2, rat α3β4 nAChR; assay: Competition binding with [^3H]epibatidine as radioligand, HEK cell membranes
α7 nAChR = α7 nAChR (Homo sapiens, UniProt P36544); assay: Binding at α7 nAChR
[5] = radioligand [^125I]AT-1012, human α3β4α5 nAChR, average ± SD
[6] = radioligand [^125I]AT-1012, rat α3β4 nAChR, average ± SD
[7] = read-out: Binding affinity (Ki)

CNC1(C)C2CCC(C2)C1(C)C (stereo not drawn) [Mecamylamine]
Ki (rat α4β2 nAChR): > 10000 nM | Competition with [^125I]AT-1012 at the human α3β4α5 nAChR (human α3β4α5 nAChR [1]): do not compete | Inhibition of [^125I]AT-1012 binding (rat α3β4 nAChR [2]; rat α3β4 nAChR): do not inhibit

Clc1ccc(C2CC3CCC2N3)cn1 (stereo not drawn) [Epibatidine]
Hill coefficient (human α3β4α5 nAChR [1]; [5]): 0.88±0.02 | Hill coefficient (human α3β4α5 nAChR [3]): 0.98±0.02 | Hill coefficient (rat α3β4 nAChR [4]): 1.00±0.06 | Hill coefficient (rat α3β4 nAChR [2]; [6]): 0.89±0.01

CN1[C@@H]2CCC[C@H]1CC(Nc1ccccc1I)C2 (stereo partly drawn) [AT-1012]
Binding selectivity for the α3β4 over α4β2 nAChR (rat α4β2 nAChR): over 100 fold | Hill coefficient (rat α4β2 nAChR): 0.88±0.02 | Ki (rat α4β2 nAChR; [7]): 142 ± 2 nM | Hill coefficient (human α3β4α5 nAChR [1]; [5]): 0.96±0.09 | Ki (human α3β4α5 nAChR [1]; read-out: Binding affinity (Ki) at human α3β4α5 nAChR, radioligand [^125I]AT-1012, average ± SD): 0.68 ± 0.06 nM | Selectivity versus the α7 nAChR (α7 nAChR): greater than 100 fold | Ki (human α3β4α5 nAChR [3]; read-out: Binding affinity (Ki) at human α3β4α5 nAChR): 1.08 ± 0.05 nM | Hill coefficient (rat α3β4 nAChR [4]): 0.77±0.09 | Ki (rat α3β4 nAChR [4]; [7]): 1.3 ± 0.16 nM | Hill coefficient (rat α3β4 nAChR [2]; [6]): 1.03±0.01

COCC[C@H]1CC2CN3CCc4c([nH]c5ccccc45)[C@](C(=O)OC)(C2)[C@H]13 [Compound 18-MC, 18-methoxycoronaridine]
Ki (rat α4β2 nAChR): > 10000 nM | Competition with [^125I]AT-1012 at the human α3β4α5 nAChR (human α3β4α5 nAChR [1]): do not compete | Ki (rat α3β4 nAChR [4]): > 10000 nM | Ki (rat α3β4 nAChR [2]): > 10000 nM | Inhibition of [^125I]AT-1012 binding (rat α3β4 nAChR [2]; rat α3β4 nAChR): do not inhibit

CN1CCC[C@H]1c1cccnc1 [Nicotine]
Hill coefficient (rat α4β2 nAChR; radioligand [^3H]epibatidine, rat α4β2 nAChR, average ± SD): 0.95±0.07 | Hill coefficient (human α3β4α5 nAChR [1]): 1305±219 (0.75±0.05) | Hill coefficient (human α3β4α5 nAChR [3]; radioligand [^3H]epibatidine, human α3β4α5 nAChR, average ± SD): 0.91±0.04 | Hill coefficient (rat α3β4 nAChR [4]; radioligand [^3H]epibatidine, rat α3β4 nAChR, average ± SD): 1.08±0.12 | Hill coefficient (rat α3β4 nAChR [2]): 467±48 (0.68±0.02)

CN1C2CCCC1CC(Nc1ccccc1Br)C2 (stereo not drawn) [AT-1001]
Hill coefficient (rat α4β2 nAChR): 0.97±0.11 | Ki (rat α4β2 nAChR; [7]): 263 ± 9.3 nM | Hill coefficient (human α3β4α5 nAChR [1]; [5]): 0.95±0.05 | Hill coefficient (human α3β4α5 nAChR [3]): 0.82±0.04 | Hill coefficient (rat α3β4 nAChR [4]): 0.87±0.19 | Hill coefficient (rat α3β4 nAChR [2]; [6]): 0.94±0.04
